According to patent US20260217701A1, “SELECTIVE BET INHIBITORS AND USES THEREOF” (Tay Therapeutics Limited, priority 2022, published 2026):
Where “and” joins values, the source holds several entries; their conditions need not be identical. Equal entries are not always repeated.

Tested on: imiquimod-induced psoriasis
Assay: Imiquimod-induced psoriasis model
Format: in vivo, mice
Parameters: Spleen Weight / Spleen Weight Ratio: unit not given here
Details: for Mean scores of the presence of erythema on the skin of animals at the area of induction of psoriasis / Mean scores of the presence of induration on the skin of animals at the area of induction of psoriasis / Mean scores of the presence of peeling on the skin of animals at the area of induction of psoriasis: mean ± SEM
Procedure, shortened: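 Mice given topical imiquimod (5% cream) daily on depilated backs Days 1–14; Compound A in 5% DMSO/40% PEG-400/55% saline from Day 8, clobetasol topical as reference. Daily PASI (erythema, induration, peeling, each 0–4, summed) Days 8–15; spleen weight, open-field behaviour, serum IL-1B, IL-6, IL-17, TNF-α, IL-22, IL-23 at Day 15.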

[1] = IMI-psoriasis model, mice, 1 mg/kg, individual animals
[2] = IMI-psoriasis model, mice, 3 mg/kg, individual animals
[3] = IMI-psoriasis model, mice, 10 mg/kg, individual animals
[4] = IMI + 1 mg/kg, D8 (before start of treatment)
[5] = IMI + 3 mg/kg, D8 (before start of treatment)

Cn1cc(-c2ccccc2)c(-c2cn(C)c(=O)c3[nH]c(-c4cnn(C(F)(F)F)c4)cc23)cc1=O [Compound A, 6-methyl-4-(1-methyl-2-oxo-5-phenyl-1,2-dihydropyridin-4-yl)-2-(1-(trifluoromethyl)-1H-pyrazol-4-yl)-1,6-dihydro-7H-pyrrolo[2,3-c]pyridin-7-one]
Use Enrichment Mean D8-D15 (IMI-psoriasis model, mean D8-D15, 10 mg/kg, per cage (two animals)): 2.86 and 3.86 and 3.50 and 3.14
Spleen Weight [1]: 219.42 and 202.00 and 212.50 and 233.20 and 220.14 and 227.26 and 202.76 and 213.15
Spleen Weight Ratio [1]: 1394.03 and 1137.39 and 1273.22 and 1367.74 and 1289.63 and 1310.61 and 1176.78 and 1298.90
Spleen Weight [2]: 199.90 and 205.09 and 178.46 and 185.94 and 214.46 and 180.80 and 187.63 and 151.76
Spleen Weight Ratio [2]: 1084.06 and 1245.23 and 967.79 and 1175.35 and 1265.25 and 1069.19 and 1163.24 and 921.43
Spleen Weight [3]: 156.01 and 178.03 and 139.03 and 157.80 and 191.54 and 195.58 and 151.42 and 172.86
Spleen Weight Ratio [3]: 939.82 and 1083.57 and 757.66 and 813.82 and 1075.46 and 1071.08 and 902.92 and 1083.08
cytokine levels (IL-17, IL-22, IL-1β, IL-6, TNF-α, IL-23) relative to vehicle (all tested doses): marked reduction of all cytokines assayed
Spleen Weight Ratio (day 15, 1, 3, 10 mg/kg): dose-dependent decrease
Mean scores of the presence of erythema on the skin of animals at the area of induction of psoriasis [4]: 2.0 ± 0.0
Mean scores of the presence of induration on the skin of animals at the area of induction of psoriasis [4]: 2.6 ± 0.2
Mean scores of the presence of peeling on the skin of animals at the area of induction of psoriasis [4]: 2.6 ± 0.2
Mean scores of the presence of erythema on the skin of animals at the area of induction of psoriasis (IMI + 1 mg/kg, D9): 2.0 ± 0.3
Mean scores of the presence of induration on the skin of animals at the area of induction of psoriasis (IMI + 1 mg/kg, D9): 2.4 ± 0.2
Mean scores of the presence of peeling on the skin of animals at the area of induction of psoriasis (IMI + 1 mg/kg, D9): 2.6 ± 0.2
Mean scores of the presence of erythema on the skin of animals at the area of induction of psoriasis (IMI + 1 mg/kg, D10): 1.75 ± 0.2
Mean scores of the presence of induration on the skin of animals at the area of induction of psoriasis (IMI + 1 mg/kg, D10): 2.1 ± 0.2
Mean scores of the presence of peeling on the skin of animals at the area of induction of psoriasis (IMI + 1 mg/kg, D10): 2.1 ± 0.1
Mean scores of the presence of erythema on the skin of animals at the area of induction of psoriasis (IMI + 1 mg/kg, D11): 1.9 ± 0.1
Mean scores of the presence of induration on the skin of animals at the area of induction of psoriasis (IMI + 1 mg/kg, D11): 2.0 ± 0.3
Mean scores of the presence of peeling on the skin of animals at the area of induction of psoriasis (IMI + 1 mg/kg, D11): 1.9 ± 0.2
Mean scores of the presence of erythema on the skin of animals at the area of induction of psoriasis (IMI + 1 mg/kg, D12): 1.5 ± 0.2
Mean scores of the presence of induration on the skin of animals at the area of induction of psoriasis (IMI + 1 mg/kg, D12): 1.6 ± 0.2
Mean scores of the presence of peeling on the skin of animals at the area of induction of psoriasis (IMI + 1 mg/kg, D12): 1.3 ± 0.2
Mean scores of the presence of erythema on the skin of animals at the area of induction of psoriasis (IMI + 1 mg/kg, D13): 0.5 ± 0.2
Mean scores of the presence of induration on the skin of animals at the area of induction of psoriasis (IMI + 1 mg/kg, D13): 1.5 ± 0.2
Mean scores of the presence of peeling on the skin of animals at the area of induction of psoriasis (IMI + 1 mg/kg, D13): 1.1 ± 0.1
Mean scores of the presence of erythema on the skin of animals at the area of induction of psoriasis (IMI + 1 mg/kg, D14): 0.3 ± 0.2
Mean scores of the presence of induration on the skin of animals at the area of induction of psoriasis (IMI + 1 mg/kg, D14): 0.9 ± 0.2
Mean scores of the presence of peeling on the skin of animals at the area of induction of psoriasis (IMI + 1 mg/kg, D14): 1.0 ± 0.0
Mean scores of the presence of erythema on the skin of animals at the area of induction of psoriasis (IMI + 1 mg/kg, D15): 0.0 ± 0.0
Mean scores of the presence of induration on the skin of animals at the area of induction of psoriasis (IMI + 1 mg/kg, D15): 0.5 ± 0.2
Mean scores of the presence of peeling on the skin of animals at the area of induction of psoriasis (IMI + 1 mg/kg, D15): 0.7 ± 0.2
Mean scores of the presence of erythema on the skin of animals at the area of induction of psoriasis [5]: 1.9 ± 0.1
Mean scores of the presence of induration on the skin of animals at the area of induction of psoriasis [5]: 2.5 ± 0.2
Mean scores of the presence of peeling on the skin of animals at the area of induction of psoriasis [5]: 2.3 ± 0.2
Mean scores of the presence of erythema on the skin of animals at the area of induction of psoriasis (IMI + 3 mg/kg, D9): 1.6 ± 0.2
Mean scores of the presence of induration on the skin of animals at the area of induction of psoriasis (IMI + 3 mg/kg, D9): 2.6 ± 0.2
Mean scores of the presence of peeling on the skin of animals at the area of induction of psoriasis (IMI + 3 mg/kg, D9): 2.5 ± 0.2
Mean scores of the presence of erythema on the skin of animals at the area of induction of psoriasis (IMI + 3 mg/kg, D10): 1.4 ± 0.2
Mean scores of the presence of induration on the skin of animals at the area of induction of psoriasis (IMI + 3 mg/kg, D10): 2.1 ± 0.1
Mean scores of the presence of peeling on the skin of animals at the area of induction of psoriasis (IMI + 3 mg/kg, D10): 2.0 ± 0.2
Mean scores of the presence of erythema on the skin of animals at the area of induction of psoriasis (IMI + 3 mg/kg, D11): 1.0 ± 0.0
Mean scores of the presence of induration on the skin of animals at the area of induction of psoriasis (IMI + 3 mg/kg, D11): 1.4 ± 0.2
Mean scores of the presence of peeling on the skin of animals at the area of induction of psoriasis (IMI + 3 mg/kg, D11): 1.6 ± 0.2
Mean scores of the presence of erythema on the skin of animals at the area of induction of psoriasis (IMI + 3 mg/kg, D12): 0.8 ± 0.2
Mean scores of the presence of induration on the skin of animals at the area of induction of psoriasis (IMI + 3 mg/kg, D12): 1.4 ± 0.2
Mean scores of the presence of peeling on the skin of animals at the area of induction of psoriasis (IMI + 3 mg/kg, D12): 1.4 ± 0.2
Mean scores of the presence of erythema on the skin of animals at the area of induction of psoriasis (IMI + 3 mg/kg, D13): 0.3 ± 0.2
Mean scores of the presence of induration on the skin of animals at the area of induction of psoriasis (IMI + 3 mg/kg, D13): 0.6 ± 0.2
Mean scores of the presence of peeling on the skin of animals at the area of induction of psoriasis (IMI + 3 mg/kg, D13): 0.9 ± 0.1
Mean scores of the presence of erythema on the skin of animals at the area of induction of psoriasis (IMI + 3 mg/kg, D14): 0.3 ± 0.2
Mean scores of the presence of induration on the skin of animals at the area of induction of psoriasis (IMI + 3 mg/kg, D14): 0.3 ± 0.2
Mean scores of the presence of peeling on the skin of animals at the area of induction of psoriasis (IMI + 3 mg/kg, D14): 0.3 ± 0.2
